According to US8765727B2, “Macrocyclic compounds and their use as kinase inhibitors” (Incyte Corporation, priority 2009, dated 2014):
Structures can show the parent of a compound that is named as a salt. Where two headings read alike, the source gives them in different places.

Experiments:
Format in all cases: biochemical
TYK2 = TYK2 (Homo sapiens (Human), UniProt P29597); assay: TYK2 assay (as described by Thompson et al.)
Description: The invention will be described in greater detail by way of specific examples. The following examples are offered for illustrative purposes, and are not intended to limit the invention in any manner. Those of skill in the art will readily recognize a variety of non-critical parameters which can be changed or modified to yield essentially the same results. In some instances where the compounds of the examples were isolated by preparative HPLC in the presence of trifluoroacetic acid (TFA) or other acid, the compound may have been obtained as the corresponding salt. […] Certain compounds described in Tables 1 and in the Example section were tested for inhibitory activity of JAK/ALK targets according to assays such as those described herein or those known in the art [e.g., ALK assays described in WO 04/079326; and TYK2 assays described by James E. Thompson et. al, “Photochemical preparation of a pyridone containing tetracycle: A JAK protein kinase inhibitor,” Bioorganic & Medicinal Chemistry Letters, Volume 12, Issue 8, 22 Apr. 2002, Pages 1219-1223]. […] Some exemplary data of the compounds of the invention are shown in Table 1 in the experimental section.

[1] = molecular target: Recombinant Human Anaplastic Lymphoma Kinase (Homo sapiens (Human), UniProt Q9UM73); assay: ALK HTRF kinase assay; settings: 90 μM ATP, 0.25 nM enzyme, 2 hours at 25° C.
Protocol: Materials: Recombinant Human Anaplastic Lymphoma Kinase was purchased from Invitrogen, Carlsbad, Calif. Peptide substrate (Biotin-[…]-amide) was custom synthesized at EZBiolab, Westfield, Ind. Streptavidin conjugated SureLight-Allophycocyania and LANCE Eu-W1024 labeled anti-phosphotyrosine antibody were from Perkin-Elmer, Boston, Mass. Microplates were from Corning Inc., Acton, Mass. All other reagents were from Sigma, St. Louis, Mo.
HTRF kinase assay: 40 μL reactions were run in black 384 well polystyrene plates in assay buffer (50 mM Tris, pH 7.8, 100 mM NaCI, 0.1 mg/mL BSA, 5 mM DTT), containing 0.5 μM Biotinylated peptide substrate, 10 mM MgCl2, 90 μM ATP, and 0.25 nM enzyme for 2 hours at 25° C. Reactions were stopped by addition of 20 μL assay buffer supplemented with an additional 50 mM NaCl, 0.4 mg/mL BSA, 45 mM EDTA, 4.5 nM LANCE Eu-W1024 labeled anti-phosphotyrosine antibody and 200 nM streptavidin conjugated SureLight-allophycocyanin. Plates were read in Fusion α-FP instrument (Perkin-Elmer). The concentrations needed to reach 50% inhibition, the IC50 value, were determined by fitting the assay signal to the following equation using Graphpad Prizm. Signal=Bottom+(Top−Bottom)/(1+10^((Log(IC50)−Log [I])*Hill Slope) Bottom and Top refer to the post and pre-transition baselines, respectively.

[2] = molecular target: human JAK1 (a.a. 837-1142) catalytic domain (Homo sapiens, UniProt P23458); assay: In vitro JAK kinase assay (HTRF), JAK1; settings: 90 μM ATP, 500 nM peptide, room temperature 1 hr
Protocol: (§1) One or more compounds herein were tested for inhibitory activity of JAK targets according to the following in vitro assay described in Park et al., Analytical Biochemistry 1999, 269, 94-104. The catalytic domains of human JAK1 (a.a. 837-1142), JAK2 (a.a. 828-1132) and JAK3 (a.a. 781-1124) with an N-terminal His tag were expressed using baculovirus in insect cells and purified. The catalytic activity of JAK1, JAK2 or JAK3 was assayed by measuring the phosphorylation of a biotinylated peptide. The phosphorylated peptide was detected by homogenous time resolved fluorescence (HTRF). […] The ATP concentration in the reactions was 90 μM for JAK1, 30 μM for JAK2 and 3 μM for JAK3. Reactions were carried out at room temperature for 1 hr and then stopped with 20 μL 45 mM EDTA, 300 nM SA-APC, 6 nM Eu-Py20 in assay buffer (Perkin Elmer, Boston, Mass.). Binding to the Europium labeled antibody took place for 40 minutes and HTRF signal was measured on a Fusion plate reader (Perkin Elmer, Boston, Mass.).

[3] = molecular target: human JAK2 (a.a. 828-1132) catalytic domain (Homo sapiens (Human), UniProt O60674); assay: In vitro JAK kinase assay (HTRF), JAK2
Protocol: One or more compounds herein were tested for inhibitory activity of JAK targets according to the following in vitro assay described in Park et al., Analytical Biochemistry 1999, 269, 94-104. The catalytic domains of human JAK1 (a.a. 837-1142), JAK2 (a.a. 828-1132) and JAK3 (a.a. 781-1124) with an N-terminal His tag were expressed using baculovirus in insect cells and purified. The catalytic activity of JAK1, JAK2 or JAK3 was assayed by measuring the phosphorylation of a biotinylated peptide. The phosphorylated peptide was detected by homogenous time resolved fluorescence (HTRF). […] Binding to the Europium labeled antibody took place for 40 minutes and HTRF signal was measured on a Fusion plate reader (Perkin Elmer, Boston, Mass.).

[4] = molecular target: human JAK3 (a.a. 781-1124) catalytic domain (Homo sapiens (Human), UniProt P52333); assay: In vitro JAK kinase assay (HTRF), JAK3; settings: 3 μM ATP, 500 nM peptide, room temperature 1 hr
Protocol: as §1

[5] = 30 μM ATP, 500 nM peptide, room temperature 1 hr

Chain of TYK2 (P29597 whole entry, species assumed): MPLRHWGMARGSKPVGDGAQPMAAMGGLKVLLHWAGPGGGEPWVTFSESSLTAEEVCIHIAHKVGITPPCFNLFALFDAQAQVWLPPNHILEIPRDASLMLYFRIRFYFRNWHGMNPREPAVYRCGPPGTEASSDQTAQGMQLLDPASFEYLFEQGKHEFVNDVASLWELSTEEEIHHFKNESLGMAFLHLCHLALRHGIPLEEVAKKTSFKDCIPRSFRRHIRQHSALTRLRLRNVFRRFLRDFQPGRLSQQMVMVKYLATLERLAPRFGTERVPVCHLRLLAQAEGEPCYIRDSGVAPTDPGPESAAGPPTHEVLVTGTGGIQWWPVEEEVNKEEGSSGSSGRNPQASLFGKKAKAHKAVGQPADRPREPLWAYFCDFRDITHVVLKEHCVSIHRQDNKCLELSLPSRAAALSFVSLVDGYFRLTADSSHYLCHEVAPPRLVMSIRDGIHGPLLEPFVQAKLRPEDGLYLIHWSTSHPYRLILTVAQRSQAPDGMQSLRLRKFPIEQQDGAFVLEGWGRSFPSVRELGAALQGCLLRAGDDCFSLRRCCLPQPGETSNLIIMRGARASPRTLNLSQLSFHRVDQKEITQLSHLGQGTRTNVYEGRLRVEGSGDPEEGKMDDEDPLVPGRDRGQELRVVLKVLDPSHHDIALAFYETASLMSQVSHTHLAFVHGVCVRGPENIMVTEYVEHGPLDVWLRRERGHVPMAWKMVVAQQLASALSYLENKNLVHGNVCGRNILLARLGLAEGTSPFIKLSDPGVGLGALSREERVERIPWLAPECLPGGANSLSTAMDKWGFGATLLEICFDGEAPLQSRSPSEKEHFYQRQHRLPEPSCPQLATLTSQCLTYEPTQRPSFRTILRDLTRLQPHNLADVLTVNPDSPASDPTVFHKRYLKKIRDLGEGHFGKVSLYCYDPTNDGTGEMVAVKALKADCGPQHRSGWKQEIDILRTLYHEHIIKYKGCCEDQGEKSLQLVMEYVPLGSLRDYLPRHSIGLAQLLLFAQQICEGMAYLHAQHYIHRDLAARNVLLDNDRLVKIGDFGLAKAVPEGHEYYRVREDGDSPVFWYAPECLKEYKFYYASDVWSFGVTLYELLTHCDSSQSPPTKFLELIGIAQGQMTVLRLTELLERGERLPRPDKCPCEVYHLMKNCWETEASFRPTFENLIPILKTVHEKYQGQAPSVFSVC
Chain of Recombinant Human Anaplastic Lymphoma Kinase (Q9UM73 19-1620): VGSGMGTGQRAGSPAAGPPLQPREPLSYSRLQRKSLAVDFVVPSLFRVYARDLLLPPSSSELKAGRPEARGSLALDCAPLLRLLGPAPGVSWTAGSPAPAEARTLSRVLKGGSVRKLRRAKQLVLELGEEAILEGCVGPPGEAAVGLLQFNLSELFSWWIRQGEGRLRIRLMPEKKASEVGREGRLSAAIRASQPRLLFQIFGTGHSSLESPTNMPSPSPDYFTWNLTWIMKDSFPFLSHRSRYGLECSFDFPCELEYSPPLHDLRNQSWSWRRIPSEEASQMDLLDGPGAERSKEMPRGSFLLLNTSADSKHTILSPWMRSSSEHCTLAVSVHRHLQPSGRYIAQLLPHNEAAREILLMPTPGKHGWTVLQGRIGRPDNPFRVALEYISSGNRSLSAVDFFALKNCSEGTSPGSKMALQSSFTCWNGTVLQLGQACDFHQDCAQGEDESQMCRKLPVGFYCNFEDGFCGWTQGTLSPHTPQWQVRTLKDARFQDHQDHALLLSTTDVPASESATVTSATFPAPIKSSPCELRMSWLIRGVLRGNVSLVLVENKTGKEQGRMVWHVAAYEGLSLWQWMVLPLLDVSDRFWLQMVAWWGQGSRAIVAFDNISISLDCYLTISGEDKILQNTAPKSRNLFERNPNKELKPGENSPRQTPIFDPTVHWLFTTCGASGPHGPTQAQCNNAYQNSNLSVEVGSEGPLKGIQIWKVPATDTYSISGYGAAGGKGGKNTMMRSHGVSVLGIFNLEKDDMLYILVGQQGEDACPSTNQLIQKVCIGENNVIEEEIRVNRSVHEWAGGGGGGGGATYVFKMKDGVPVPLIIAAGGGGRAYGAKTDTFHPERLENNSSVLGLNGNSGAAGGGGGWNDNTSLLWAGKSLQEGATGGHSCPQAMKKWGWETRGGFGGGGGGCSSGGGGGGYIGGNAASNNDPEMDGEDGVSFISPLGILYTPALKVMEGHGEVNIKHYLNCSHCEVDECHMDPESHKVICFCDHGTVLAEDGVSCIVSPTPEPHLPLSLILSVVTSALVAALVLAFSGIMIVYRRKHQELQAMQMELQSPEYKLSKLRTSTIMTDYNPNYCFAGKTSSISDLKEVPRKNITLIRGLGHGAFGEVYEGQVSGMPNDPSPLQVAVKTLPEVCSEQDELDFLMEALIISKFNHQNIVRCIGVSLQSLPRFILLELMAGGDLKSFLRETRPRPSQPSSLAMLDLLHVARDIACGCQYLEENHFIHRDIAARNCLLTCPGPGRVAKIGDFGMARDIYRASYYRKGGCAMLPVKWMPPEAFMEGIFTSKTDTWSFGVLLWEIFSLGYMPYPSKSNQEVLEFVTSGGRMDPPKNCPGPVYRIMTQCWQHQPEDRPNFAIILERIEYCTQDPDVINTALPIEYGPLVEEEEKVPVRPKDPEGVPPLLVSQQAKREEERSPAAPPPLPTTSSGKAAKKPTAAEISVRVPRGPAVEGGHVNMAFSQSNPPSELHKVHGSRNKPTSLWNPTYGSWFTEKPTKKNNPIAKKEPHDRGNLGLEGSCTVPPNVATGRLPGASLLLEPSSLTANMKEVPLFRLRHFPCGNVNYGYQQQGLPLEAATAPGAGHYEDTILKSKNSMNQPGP
Chain of human JAK3 (a.a. 781-1124) catalytic domain (P52333 781-1124): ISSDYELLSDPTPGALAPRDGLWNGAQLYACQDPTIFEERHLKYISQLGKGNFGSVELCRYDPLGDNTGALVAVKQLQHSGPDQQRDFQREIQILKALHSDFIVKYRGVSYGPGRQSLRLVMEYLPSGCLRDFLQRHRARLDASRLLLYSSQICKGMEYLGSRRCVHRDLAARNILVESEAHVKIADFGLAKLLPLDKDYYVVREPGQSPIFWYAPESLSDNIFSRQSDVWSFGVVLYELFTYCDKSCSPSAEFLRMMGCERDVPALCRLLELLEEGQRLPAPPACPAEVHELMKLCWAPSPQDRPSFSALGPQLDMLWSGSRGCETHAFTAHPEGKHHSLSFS
Chain of human JAK2 (a.a. 828-1132) catalytic domain (O60674 828-1132): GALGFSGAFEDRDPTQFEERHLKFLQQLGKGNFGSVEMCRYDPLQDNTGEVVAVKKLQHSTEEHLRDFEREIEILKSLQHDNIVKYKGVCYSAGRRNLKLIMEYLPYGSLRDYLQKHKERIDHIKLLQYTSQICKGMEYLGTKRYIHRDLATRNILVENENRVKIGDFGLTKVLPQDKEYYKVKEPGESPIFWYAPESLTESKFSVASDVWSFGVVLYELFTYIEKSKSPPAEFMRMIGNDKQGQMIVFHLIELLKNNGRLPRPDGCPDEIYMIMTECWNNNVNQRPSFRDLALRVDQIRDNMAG

Structure (SMILES)	IC50 (TYK2)	IC50 [1]	IC50 [2]	IC50 [3]	IC50 [4]	IC50 [3, 5]
Clc1cnc2nc1NCc1cccc(c1)OCc1cccc(c1)N2 [Example 1, 6-Chloro-15-oxa-2,4,8,23-tetraazatetracyclo[15.3.1.1(3,7).1(10,14)]tricosa-1(21),3(23),4,6,10(22),11,13,17,19-nonaene trifluoroacetate]	0.4 µM	> 1 µM	0.051 µM	0.049 µM	0.017 µM	
Clc1cnc2nc1NCc1cccc(c1)OCCc1cccc(c1)N2 [Example 2, 6-Chloro-15-oxa-2,4,8,24-tetraazatetracyclo[16.3.1.1(3,7).1(10,14)]tetracosa-1(22),3(24),4,6,10(23),11,13,18,20-nonaene trifluoroacetate]	0.035 µM	1.53 µM	0.013 µM		0.0092 µM	0.01 µM
O=S1(=O)Nc2cccc(c2)CNc2nc(ncc2Cl)Nc2cccc1c2 [Example 3, 6-Chloro-16-thia-2,4,8,15,23-pentaazatetracyclo[15.3.1.1(3,7).1(10,14)]tricosa-1(21),3(23),4,6,10(22),11,13,17,19-nonaene 16,16-dioxide trifluoroacetate]	0.83 µM	> 10 µM	0.3 µM		0.325 µM	
O=C1Nc2cccc(c2)CNc2nc(ncc2Cl)Nc2cccc1c2 [Example 4, 6-Chloro-2,4,8,15,23-pentaazatetracyclo[15.3.1.1(3,7).1(10,14)]tricosa-1(21),3(23),4,6,10(22),11,13,17,19-nonaen-16-one trifluoroacetate]	> 1 µM	> 10 µM	0.096 µM		0.021 µM	0.104 µM
Clc1cnc2nc1NCc1cccc(c1)OCCCc1cccc(c1)N2 [Example 5, 6-Chloro-15-oxa-2,4,8,25-tetraazatetracyclo[17.3.1.1(3,7).1(10,14)]pentacosa-1(23),3(25),4,6,10(24),11,13,19,21-nonaene trifluoroacetate]	0.025 µM	0.706 µM	0.0042 µM	0.0019 µM	0.0024 µM	
C[C@H]1Nc2nc(ncc2Cl)Nc2cccc(c2)COc2cccc1c2 [Example 6, (9R)-6-Chloro-9-methyl-15-oxa-2,4,8,23-tetraazatetracyclo[15.3.1.1(3,7).1(10,14)]tricosa-1(21),3(23),4,6,10(22),11,13,17,19-nonaene trifluoroacetate]	> 1 µM	> 10 µM	0.346 µM		0.14 µM	0.35 µM
Clc1cnc2nc1NCc1cccc(c1)OCCOc1cccc(c1)N2 [Example 7, 6-Chloro-15,18-dioxa-2,4,8,25-tetraazatetracyclo[17.3.1.1(3,7).1(10,14)]pentacosa-1(23),3(25),4,6,10(24),11,13,19,21-nonaene trifluoroacetate]	0.043 µM	2.05 µM	0.016 µM		0.0064 µM	0.0083 µM
Clc1cnc2nc1NCCc1cccc(c1)OCc1cccc(c1)N2 [Example 8, 19-Chloro-9-oxa-2,17,21,22-tetraazatetracyclo[16.3.1.1(3,7).1(10,14)]tetracosa-1(22),3(24),4,6,10(23),11,13,18,20-nonaene]	0.438 µM	> 10 µM	0.6 µM		0.3 µM	
Clc1cnc2nc1NCCc1cccc(c1)OCCc1cccc(c1)N2 [Example 9, 6-Chloro-16-oxa-2,4,8,25-tetraazatetracyclo[17.3.1.1(3,7).1(11,15)]pentacosa-1(23),3(25),4,6,11(24),12,14,19,21-nonaene]	0.053 µM	1.23 µM	0.028 µM		0.055 µM	0.023 µM
Clc1cnc2nc1NCCCc1cccc(c1)OCc1cccc(c1)N2 [Example 10, 20-Chloro-9-oxa-2,18,22,23-tetraazatetracyclo[17.3.1.1(3,7).1(10,14)]pentacosa-1(23),3(25),4,6,10(24),11,13,19,21-nonaene]	0.237 µM	> 1 µM	0.122 µM		0.18 µM	0.117 µM
C[C@@H]1Nc2nc(ncc2Cl)Nc2cccc(c2)COc2cccc1c2 [Example 11, (9S)-6-Chloro-9-methyl-15-oxa-2,4,8,23-tetraazatetracyclo[15.3.1.1(3,7).1(10,14)]tricosa-1(21),3(23),4,6,10(22),11,13,17,19-nonaene trifluoroacetate]	> 1 µM	> 10 µM	> 1 µM		> 1 µM	> 1 µM
Clc1cnc2nc1NCCc1cccc(c1)OCCCc1cccc(c1)N2 [Example 12, 6-Chloro-16-oxa-2,4,8,26-tetraazatetracyclo[18.3.1.1(3,7).1(11,15)]hexacosa-1(24),3(26),4,6,11(25),12,14,20,22-nonaene]	0.4 µM	> 10 µM	0.3 µM		0.315 µM	
Clc1cnc2nc1NCCCc1cccc(c1)OCCc1cccc(c1)N2 [Example 13, 21-Chloro-10-oxa-2,19,23,24-tetraazatetracyclo[18.3.1.1(3,7).1(11,15)]hexacosa-1(24),3(26),4,6,11(25),12,14,20,22-nonaene]	0.106 µM	> 10 µM	0.032 µM		0.062 µM	0.025 µM
Clc1cnc2nc1NCc1cc(ccc1Br)OCCCc1cccc(c1)N2 [Example 14, 11-Bromo-6-chloro-15-oxa-2,4,8,25-tetraazatetracyclo[17.3.1.1(3,7).1(10,14)]pentacosa-1(23),3(25),4,6,10(24),11,13,19,21-nonaene]	0.3 µM	8.2 µM	0.1 µM		0.057 µM	0.091 µM
Clc1cnc2nc1NCc1cc(ccc1-c1ccccc1)OCCCc1cccc(c1)N2 [Example 15, 6-Chloro-11-phenyl-15-oxa-2,4,8,25-tetraazatetracyclo[17.3.1.1(3,7).1(10,14)]pentacosa-1(23),3(25),4,6,10(24),11,13,19,21-nonaene]	0.4 µM	> 1 µM	0.081 µM		0.031 µM	0.041 µM
Clc1cnc2nc1NCc1cc(Br)cc(c1)OCCCc1cccc(c1)N2 [Example 16, 12-Bromo-6-chloro-15-oxa-2,4,8,25-tetraazatetracyclo[17.3.1.1(3,7).1(10,14)]pentacosa-1(23),3(25),4,6,10(24),11,13,19,21-nonaene]	0.149 µM	0.28 µM				0.005 µM
